Measured values as given in US20170283340A1, “ALKYL THIOPHOSPHORIC TRIAMIDE AND NEEM OIL SOLVENT SYSTEMS FOR USE IN AGRICULTURAL APPLICATIONS” (RHODIA OPERATIONS, priority 2016, published 2017).

Key:
[1] = cited from earlier work
[2] = Thermal stability of NBPT at high temperature; assay type: physicochemical; conditions: followed by sludge/precipitate formation after weeks of high heat
Experimental: Another problem is that certain nitrification inhibitors and/or urease inhibitors degrade at certain high temperatures. […] Often times temperatures in agricultural fields (e.g., corn fields, wheat fields, etc.) reach in excess of 35° C. and sometimes can reach up to 45° C. or higher. For example, at 45° C. […] Thus, it is also desirable to have solvent systems containing nitrification inhibitors and/or urease inhibitors that are stabilized at high temperatures, such as those utilized in hot climates or weather. This invention addresses the addition of co-solvents and/or stabilizers to prolong the chemical and physical stability of formulated liquid agricultural compositions containing (i) one or more nitrification inhibitors, (ii) one or more urease inhibitors or (iii) a combination of both (i) and (ii). In one embodiment, the at least one urease inhibitor is NBPT. In one embodiment, the at least one nitrification inhibitor a natural nitrification inhibitor. In yet another embodiment, the at least one nitrification inhibitor is neem.

[3] = typically above 45° C.; cited from earlier work

SMILES	solubility in water [1]	appearance of NBPT formulated in different solvents at 45° C. [2]	degradation at higher temperature [3]
N#CNC(=N)N [dicyandiamide, Dicyandiamide]	about 41 g/l		
CCCCNP(N)(N)=S [NBPT, N-(n-butyl)-thiophosphoric triamide]		changes color in days from colorless to a darker green/brown	degrades rapidly
